In US20030065039A1, “Biologically active 1,3-bis-aromatic-prop-2-en-1-ones, 1,3-bis-aromatic-propan-1-ones, and 1,3-bis-aromatic-prop-2-yn-1-ones” (Statens Serum Institute, priority 1997, published 2003) one finds IC50 data, which are given here for 37 molecules.

Holding throughout (format): cell-based
The subject of assay [1] is Leishmania promastigotes. The assay is described as follows: Leishmania promastigotes Assay. As to conditions: read-out: Leishmania IC50 ± SD. The procedure:
A WHO reference vaccine strain of L. major originally isolated from a patient in Iran and a Kenyan strain of L. donovani (MHOM(/KE/85/NLB 274) were cultured in medium 199 containing 0.02 mg/ml gentamycin, 25 mM Hepes, 4 mM L-glutamine, and 20% heat inactivated fetal calf serum (FCS). Incubation was carried out at 26° C. Promastigotes were harvested on day 3 and 6 of the culture and used for the parasite growth inhibition.
The effect of the test compounds on promastigotes was assessed by a method similar to the one described by Pearson et al., by incubating promastigotes (3×10^6/ml) at 26° C. for 2 hrs in the presence of a given compound or the medium alone in 96 wells flat bottom microtiter plates. Following incubation, 100 μCi of 3H-thymidine was added to each well and further incubated for 18 hrs. Promastigotes were then harvested on filter paper by means of a cell harvester, extensively washed with distilled water and counted in a scintillation counter. The promastigotes were also counted microscopically and their flagellar motility was assessed.

The test system of assay [2] is human lymphocytes. The assay can be described thus: Lymphocyte Proliferation Assay. As to conditions: read-out: Lymphocytes IC50 ± SD. The procedure: Human blood mononuclear cells (BMNC) from heparinized blood were isolated by metrizoate sodium-Ficoll density gradient centrifugation, washed 3 times in RPMI 1640 medium supplemented with 5% FCS and with 400 IU of penicillin plus 400 μg/ml streptomycin. BMNC were resuspended in the medium and cultured in triplicate, 0.63×10^5/ml and 160 μl per vial, in round-bottom microtiter plates with 20 μl of various concentrations of the test compound. Immediately prior to incubation, optimum concentrations of the mitogen phytohaemagglutinin (PHA) and the antigen purified protein derivative of tuberculin (PPD) were added to the cultures in a volume of 20 μl. Unstimulated control cultures were always included. Cultures were incubated for 3 or 7 days. The degree of lymphocyte proliferation was estimated by ^3H-thymidine (1 μCi per well) addition 24 h before the cells were harvested on glass fiber filters by means of a harvesting machine), and ^3H-thymidine incorporation was measured in a liquid scintillation counter. For each set of triplicate values, the median was recorded. Unstimulated cultures were always included as controls.

The test system of assay [3] is Plasmodium falciparum. The assay can be described thus: Plasmodium falciparum Assay. As to conditions: 3-H-hypoxanthine incorporation, 48 hours, read-out: Plasmodium IC50 ± SD. The procedure:
The experiments in which compounds were tested for their ability to inhibit parasite growth were performed by a modification of the method originally described by Jensen et al. (1982). 50 μl of parasitized erythrocytes (parasitemia approximately 1%) in a concentration of 5×10^8/ml and 50 μl of RPMI medium containing different concentrations of the test compound was added to each well of a 96 well flat-bottomed microtiter plate. The cultures were then incubated for 48 hours, 24 hours before termination of the culture adding 20 μl of 3-H-hypoxanthine (40 uCi/ml) was added to each well. The cultures were then harvested onto glass fiber filters using a Skatron cell harvester, and the incorporation of 3-H-hypoxanthine into the DNA of dividing parasites was determined by liquid scintillation spectrometry. Control cultures with uninfected erythrocytes and infected erythrocytes in RPMI medium without test compounds were always performed in parallel to the test cultures. In some experiments thin smears of parasite cultures were stained by Giemsa and examined under microscope (×1000). The test compounds described above, were diluted in RPMI medium immediately before use. In the experiments, chloroquine phosphate was used as a positive control as a drug known to inhibit parasite growth.

Setting [4] is: Leishmania, promastigotes, 3H-thymidine uptake.
Where [5] appears, read: Lymphocyte, PHA provoked proliferation of human lymphocytes.
The mark [6] stands for this setting: promastigotes, 3H-thymidine uptake.
The mark [7] stands for this setting: PHA provoked proliferation of human lymphocytes.

Read-outs that look alike come from different tables or passages of the source.

Regarding `COc1cccc(/C=C/C(=O)c2ccc(O)cc2)c1OC` [2,3-OCH3-4′-OH, 2,3-dimethoxy-4′-hydroxychalcone], the IC50 in assay [1] (setting [4]) worked out at 89 ± 9 µM; in assay [2] (setting [5]), 70 ± 4 µM; in assay [3] (Plasmodium falciparum) it was 25 µM.
On to `C=CCOc1ccc(C(=O)/C=C/c2cccc(OC)c2OC)cc1` [2,3-OCH3-4′-allyloxy], for which the half-maximal inhibitory concentration (IC50) amounted to 49 ± 3 µM in assay [1] (setting [6]), 96 ± 6 µM in assay [2] (setting [7]) and 26 µM in assay [3].
With `COc1ccc(/C=C/C(=O)c2ccccc2OC)c(OC)c1` [2,4,2′-OCH3], the 50% inhibitory concentration (IC50) in assay [1] (setting [6]) stood at 16 ± 1 µM; in assay [2] (setting [7]), 26 ± 2 µM.
For the molecule `COc1cc(OC)c(OC)cc1/C=C/C(=O)c1ccc(O)cc1` [2,4,5,-OCH3-4′-OH], the concentration for half-maximal inhibition (IC50) in assay [1] (setting [6]) amounted to 16 ± 2 µM; in assay [2] (setting [7]), 28 ± 2 µM; in assay [3] it was 13 µM.
Turning to `COc1cc(OC)c(/C=C/C(=O)c2ccc(O)cc2)c(OC)c1` [2,4,6-OCH3-4′-OH], the concentration for half-maximal inhibition (IC50) stood at 106 ± 8 µM in assay [1] (setting [6]) and 44 ± 2 µM in assay [2] (setting [7]).
As to `COc1ccc(/C=C/C(=O)c2ccccc2O)c(OC)c1` [2,4-OCH3-2′-OH], the concentration for half-maximal inhibition (IC50) amounted to 35 ± 2 µM in assay [1] (setting [6]), 144 ± 9 µM in assay [2] (setting [7]) and 28 µM in assay [3].
Consider `C=CCOc1ccccc1C(=O)/C=C/c1ccc(OC)cc1OC` [2,4-OCH3-2′-allyloxy], for which the IC50 in assay [1] (setting [6]) came to 5 ± 0.7 µM.
As for `CCCCOc1ccc(C(=O)/C=C/c2ccc(OC)cc2OC)cc1` [2,4-OCH3-4′-OC4H9, 2,4-dimethoxy-4′-butoxychalcone], in assay [1] (setting [4]), the half-maximal inhibitory concentration (IC50) turned out to be 95 ± 10 µM.
For `CCCCCCOc1ccc(C(=O)/C=C/c2ccc(OC)cc2OC)cc1` [2,4-OCH3-4′-OC6H13], the IC50 in assay [1] (setting [6]) was 136 ± 15 µM; in assay [3] it was 14 µM.
Turning to `COc1ccc(/C=C/C(=O)c2ccccc2)c(OC)c1` [2,4-OCH3], the IC50 was 15 µM in assay [1] (setting [6]), 48 ± 2 µM in assay [2] (setting [7]) and 34 µM in assay [3].
Take `C=CCOc1ccc(C(=O)/C=C/c2cc(OCC=C)ccc2OCC=C)cc1` [2,5,4′-allyloxy]: the 50% inhibitory concentration (IC50) amounted to 38 ± 2 µM in assay [1] (setting [6]) and 61 ± 3 µM in assay [2] (setting [7]).
`COc1ccc(OC)c(/C=C/C(=O)c2ccc(O)cc2)c1` [2,5-OCH3-4′-OH, 2,5-dimethoxy-4′hydroxychalcone]: the IC50 worked out at 23 ± 2 µM in assay [1] (setting [4]) and 22 ± 1 µM in assay [2] (setting [5]).
Take `C=CCOc1ccc(C(=O)/C=C/c2cc(OC)ccc2OC)cc1` [2,5-OCH3-4′-allyloxy]: the 50% inhibitory concentration (IC50) in assay [1] (setting [6]) is 73 ± 4 µM; in assay [2] (setting [7]) it was 55 ± 2 µM; in assay [3], 23 µM.
As for `CCCCOc1ccc(C(=O)/C=C/c2c(OC)cccc2OC)cc1` [2,6-OCH3-4′-OC4H9, 2,6-dimethoxy-4′-butoxychalcone], the IC50 in assay [1] (setting [4]) came out at 104 ± 9 µM; in assay [2] (setting [5]) it was 127 ± 10 µM; in assay [3] (Plasmodium falciparum), 14 µM.
For `COc1cccc(OC)c1/C=C/C(=O)c1ccc(O)cc1` [2,6-OCH3-4′-OH], the half-maximal inhibitory concentration (IC50) in assay [1] (setting [6]) turned out to be 82 ± 8 µM; in assay [2] (setting [7]), 60 ± 2 µM.
For the molecule `C=CCOc1ccc(C(=O)/C=C/c2c(OC)cccc2OC)cc1` [2,6-OCH3-4′-allyloxy], the values for the IC50 in assay [1] (setting [6]) and in assay [2] (setting [7]) were 81 ± 7 µM and 96 ± 8 µM, respectively.
Regarding `COc1c(/C=C/C(=O)c2ccc(O)cc2)ccc(O)c1C` [2-OCH3-3-methyl-4,4′-OH, 2-methoxy-3-methyl-4,4′-dihydroxychalcone], the IC50 in assay [1] (setting [4]) stood at 22 ± 3 µM; in assay [2] (setting [5]), 27 ± 4 µM; in assay [3] (Plasmodium falciparum), 33 µM.
For the molecule `COc1cc(O)ccc1/C=C/C(=O)c1ccc(O)cc1` [2-OCH3-4,4′-OH, 2-methoxy-4,4′-dihydroxychalcone], the 50% inhibitory concentration (IC50) turned out to be 68 ± 4 µM in assay [1] (setting [4]), 94 ± 4 µM in assay [2] (setting [5]) and 19 µM in assay [3] (Plasmodium falciparum).
In the same order, the values of `CCCCCCc1cc(/C=C/C(=O)c2ccc(O)cc2)c(OC)cc1O` [2-OCH3-4,4′-OH-5-hexyl, 2-methoxy-4,4′-dihydroxy-5-hexylchalcone] are 9.7 ± 0.9 µM, 46 ± 3 µM and 5.1 µM.
In the same order, the values of `CCCc1cc(/C=C/C(=O)c2ccc(O)cc2)c(OC)cc1O` [2-OCH3-4,4′-OH-5-propyl, 2-methoxy-4,4′-dihydroxy-5-propylchalcone] are 26 ± 2 µM, 41 ± 3 µM and 10 µM.
In the same order, the values of `COc1cc(O)cc(C)c1/C=C/C(=O)c1ccc(O)cc1` [2-OCH3-4,4′-OH-6-methyl, 2-methoxy-4,4′-dihydroxy-6-methylchalcone] are 39 ± 5 µM, 53 ± 6 µM and 28 µM.
For the molecule `COc1cc(O)ccc1/C=C/C(=O)c1ccc(N(C)C)cc1` [2-OCH3-4-OH-4′-N(CH3)2], the IC50 in assay [1] (setting [6]) is 49 ± 4 µM; in assay [2] (setting [7]), 111 ± 7 µM; in assay [3] it was 23 µM.
Consider `COc1ccc(C(=O)/C=C/c2ccc(Cl)cc2Cl)c(OC)c1OC` [2′,3′,4′-OCH3-2,4-Cl], for which the half-inhibitory concentration (IC50) in assay [1] (setting [6]) was determined as 6.3 ± 0.6 µM; in assay [2] (setting [7]), 7.8 ± 0.9 µM; in assay [3] it was 7.9 µM.
For `O=C(/C=C/c1ccc(O)c(O)c1)c1ccc(O)cc1O` [2′,4′,3,4-OH], in that order: 66 ± 2 µM, 16 ± 1 µM and 49 µM.
In the same order, the values of `COc1cc(/C=C/C(=O)c2ccc(O)cc2O)ccc1O` [2′,4′,4-OH-3-OCH3] are 16 ± 2 µM, 31 ± 2 µM and 43 µM.
In the same order, the values of `COc1ccc(/C=C/C(=O)c2ccc(F)cc2F)c(OC)c1` [2′,4′-F-2,4-OCH3] are 26 ± 2 µM, 74 ± 4 µM and 49 µM.
Turning to `COc1ccc(C(=O)/C=C/c2ccc(F)c(F)c2)c(OC)c1` [2′,4′-OCH3-3,4-F], the figures for the IC50 in assay [1] (setting [6]), in assay [2] (setting [7]) and in assay [3] were 16 ± 1 µM, 5.3 ± 0.6 µM and 10 µM, respectively.
On to `COc1ccc(OC)c(C(=O)/C=C/c2ccc(Cl)cc2Cl)c1` [2′,5′-OCH3-2,4-Cl], for which the IC50 in assay [1] (setting [6]) turned out to be 7.8 ± 0.7 µM; in assay [2] (setting [7]), 5.7 ± 0.5 µM.
As to `COc1ccc(/C=C/C(=O)c2ccccc2Br)c(OC)c1` [2′-Br-2,4-OCH3, 2,4-dimethoxy-2′-bromochalcone], the IC50 in assay [1] (setting [4]) stood at 14 ± 2 µM; in assay [2] (setting [5]), 35 ± 3 µM; in assay [3] (Plasmodium falciparum), 26 µM.
As to `C=CCOc1ccc(C(=O)/C=C/c2cc(OC)c(OC)c(OC)c2)cc1` [3,4,5-OCH3-4′-allyloxy], the IC50 in assay [1] (setting [6]) worked out at 41 ± 4 µM; in assay [2] (setting [7]), 30 ± 1 µM.
Consider `CCCCOc1ccc(C(=O)/C=C/c2cc(OC)cc(OC)c2)cc1` [3,5-OCH3-4′-OC4H9], for which the half-maximal inhibitory concentration (IC50) in assay [1] (setting [6]) was 35 ± 3 µM; in assay [2] (setting [7]), 52 ± 3 µM; in assay [3] it was 17 µM.
On to `COc1cc(/C=C/C(=O)c2ccc(O)cc2)cc(OC)c1` [3,5-OCH3-4′-OH], for which the IC50 in assay [1] (setting [6]) turned out to be 12 ± 1 µM; in assay [2] (setting [7]) it was 14 ± 1 µM; in assay [3], 25 µM.
On to `C=CCOc1ccc(C(=O)/C=C/c2cc(OC)c(CCCC)c(OC)c2)cc1` [4-C4H9-3,5-OCH3-4′-allyloxy, 4-butyl-3,5-dimethoxy-4′-(2-propenyloxy)chalcone], for which the half-maximal inhibitory concentration (IC50) in assay [1] (setting [4]) is 90 ± 14 µM.
With `CN(C)c1ccc(/C=C/C(=O)c2ccc(O)cc2)cc1` [4-N(CH3)2-4′-OH], the figures for the IC50 in assay [1] (setting [6]) and in assay [2] (setting [7]) were 79 ± 6 µM and 130 ± 13 µM, respectively.
Turning to `O=C(/C=C/c1ccc([N+](=O)[O-])cc1)c1ccc([N+](=O)[O-])cc1` [4′,4-NO2, 4,4′-dinitro-chalcone], the 50% inhibitory concentration (IC50) in assay [1] (Leishmania) is 26 ± 4 µM; in assay [2] (Homo sapiens, Lymphocyte), 51 ± 3 µM.
As to `CN(C)c1ccc(C(=O)/C=C/c2ccc([N+](=O)[O-])cc2)cc1` [4′-N(CH3)2-4-NO2, 4-nitro-4′-dimethylaminochalcone], the IC50 in assay [3] (Plasmodium falciparum) was found to be 93 µM.
`O=C(/C=C/c1ccc(F)cc1)c1ccc(C2CCCCC2)cc1` [4′-cC6H11-4-F, 4-fluoro-4′-cyclohexylchalcone]: the results for the half-maximal inhibitory concentration (IC50) in assay [1] (setting [4]) and in assay [2] (setting [5]) were 27 ± 2 µM and 74 ± 2 µM, respectively.
